From US11970448B2, “Monomers capable of dimerizing in an aqueous solution, and methods of using same” (CORNELL UNIVERSITY, priority 2011, dated 2024)
pIC50: −log10 of the molar value. Where a name gives a salt, the structure may show the parent alone. Read-outs that look alike come from different tables or passages of the source.

Target: T1, recominbant human tryptase, beta, from lung (Homo sapiens, UniProt P20231)
T1 construct: purchased Promega or Enzo Life Sciences G5631 or BML-SE418
Test: Inhibition of tryptase activity by monomers and multimers (Boc-Gln-Ala-Arg-AMC fluorescence)
Type: biochemical
Details: monomers against tryptase
Method: Stock solutions of recominbant human tryptase, beta, from lung (Promega: catalog number G5631, or Enzo Life Sciences: catalog number BML-SE418) were made at 30 μM, in solution with 5 μM heparin sulfate and 1 M NaCl. Monomer tryptase inhibitor stock solutions were made at 50 mM in DMSO. Test substance plates were made at 1.2× the final concentration in assay buffer (50 mM HEPES, 150 mM NaCl, 100 μM EDTA, pH 7.4, 0.02% Tween-20). A final concentration of 1 nM tryptase was used. When required, test substances were diluted in water immediately before use in 10-fold serial dilutions. After the indicated incubation time, the test subtance-tryptase solution at 1.2× concentration, was diluted into assay buffer containing a final concentration of 200 μM N-tert-butoxycarbonyl-Gln-Ala-Arg-AMC HBr [AMC=7-amino-4-methylcoumarin] (Boc-Gln-Ala-Arg-AMC; Enzo Life Sciences: catalog number BML-P237) to a final volume of 50 μl in black opaque round bottom 96 well plates (Corning, catalog number 3792). The release of fluorescent AMC was immediately measured every 30 seconds over 15-30 minutes at an excitation wavelength of 367 nm, monitoring emission at 468 nm on a Spectramax M5 (Molecular Devices) microplate reader. The Softmax Pro (Molecular Devices) and Graphpad prism software were used to determine Vmax, and concentration-response curve IC50s, respectively.

[1] = Table 5, read-out: Monomer IC50 range
[2] = entry marked (1:10), read-out: IC50 range group of additional monomers marked (1:10)
[3] = read-out: IC50 range group of additional monomers (boronic acid, benzooxaborole, ligands)

T1 sequence (P20231 31-275): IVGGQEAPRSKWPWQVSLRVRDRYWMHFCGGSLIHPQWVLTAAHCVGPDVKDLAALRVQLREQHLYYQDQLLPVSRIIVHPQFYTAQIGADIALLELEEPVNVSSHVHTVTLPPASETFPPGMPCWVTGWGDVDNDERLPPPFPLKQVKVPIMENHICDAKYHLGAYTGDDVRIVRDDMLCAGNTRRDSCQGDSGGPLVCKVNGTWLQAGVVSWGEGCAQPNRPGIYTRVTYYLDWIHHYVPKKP

Q: `NCc1ccc(CNC(=O)N2CCN(C(=O)CNC(=O)C(O)CO)CC2)cc1` (stereo not shown) [CF13, N-(4-(aminomethyl)benzyl)-4-(2-(2,3-dihydroxypropanamido)acetyl)piperazine-1-carboxamide hydrochloride] was tested. Which pIC50 [1] did it give?
A: 5.00 to 6.00

Q: With `NCc1ccc2c(c1)C1(CCN(C(=O)c3ccc(OCC(O)CO)cc3)CC1)CO2` (stereo not shown) [CF15, (5-(aminomethyl)-2H-spiro[benzofuran-3,4′-piperidine]-1′-yl)(4-(2,3-dihydroxypropoxy)phenyl)methanone hydrochloride] as the compound, how does the pIC50 [1] read?
A: 5.00 to 6.00

Q: How did the pIC50 [1] turn out when `NCc1cccc(C2CCN(C(=O)c3cccc(NC(=O)NCC(O)C(F)(F)F)c3)CC2)c1` (stereo not shown) [CF17, 1-(3-(4-(3-(aminomethyl)phenyl)piperidine-1-carbonyl)phenyl)-3-(3,3,3-trifluoro-2-hydroxypropyl)urea hydrochloride] was run?
A: 6.00 to 10.00

Q: `NCc1ccc(CNC(=O)N2CCN(C(=O)CNC(=O)C(=O)CO)CC2)cc1` [CF20, N-(4-(aminomethyl)benzyl)-4-(2-(3-hydroxy-2-oxopropanamido)acetyl)piperazine-1-carboxamide] was tested. Which pIC50 [1] did it give?
A: 6.00 to 10.00

Q: `C[C@@]1(O)CN(c2cccc(C(=O)N3CCC(c4cccc(CN)c4)CC3)c2)C(=O)[C@@H]1O` [CMI9317, 1-{^3-[^4-(3-aminomethyl-phenyl)-piperidine-1-carbonyl]-phenyl}-3,4-dihydroxy-4-methyl-pyrrolidin-2-one hydrochloride] was tested. Which pIC50 [2] did it give?
A: 6.00 to 10.00

Q: `C[C@]1(O)CN(c2cccc(C(=O)N3CCC(c4cccc(CN)c4)CC3)c2)C(=O)[C@H]1O` [CMI9321, 1-{3-[4-(3-aminomethyl-phenyl)-piperidine-1-carbonyl]-phenyl}-3,4-dihydroxy-4-methyl-pyrrolidin-2-one hydrochloride] was tested. Which pIC50 [2] did it give?
A: 6.00 to 10.00

Q: How did the pIC50 [1] turn out when `NCc1ccc2c(c1)C1(CCN(C(=O)c3ccc(O)c(O)c3)CC1)CO2` [T2SPIRO, (5-(aminomethyl)-2H-spiro[benzofuran-3,4′-piperidine]-1′-yl)(3,4-dihydroxyphenyl)methanone] was run?
A: 6.00 to 10.00

Q: What about the pIC50 [3] of the same compound?
A: 6.00 to 10.00

Q: `NCc1ccc(F)c(C2CCN(C(=O)c3cccc4ccc(B(O)O)cc34)CC2)c1` [T11F, 8-(4-(5-(aminomethyl)-2-fluorophenyl)piperidine-1-carbonyl)naphthalen-2-ylboronic acid] was tested. Which pIC50 [1] did it give?
A: 5.00 to 6.00

Q: And the pIC50 [3]?
A: 5.00 to 6.00

Q: With `NCc1cccc(C2CCN(C(=O)c3cccc(/C=C/B(O)O)c3)CC2)c1` [T14, (E)-3-(4-(3-(aminomethyl)phenyl)piperidine-1-carbonyl)styrylboronic acid] as the compound, how does the pIC50 [1] read?
A: 6.00 to 10.00

Q: `NCc1cccc(C2CCN(C(=O)c3cccc(NC(=O)C(O)C4(O)CCC4)c3)CC2)c1` (stereo not shown) [T21 (Diol), N-(3-(4-(3-(aminomethyl)phenyl)piperidine-1-carbonyl)phenyl)-2-hydroxy-2-(1-hydroxycyclobutyl)acetamide] was tested. Which pIC50 [1] did it give?
A: 6.00 to 10.00

Q: What about the pIC50 [3] of the same compound?
A: 6.00 to 10.00

Q: `NCc1cccc(C2CCN(C(=O)c3cccc(NC(=O)C(=O)C4(O)CCC4)c3)CC2)c1` [T21, N-(3-(4-(3-(aminomethyl)phenyl)piperidine-1-carbonyl)phenyl)-2-(1-hydroxycyclobutyl)-2-oxoacetamide] was tested. Which pIC50 [1] did it give?
A: 6.00 to 10.00

Q: `NCc1cccc(C2CCN(C(=O)c3cccc(OCC(=O)C4(O)CCC4)c3)CC2)c1` [T22, 2-(3-(4-(3-(aminomethyl)phenyl)piperidine-1-carbonyl)phenoxy)-1-(1-hydroxycyclobutyl)ethanone] was tested. Which pIC50 [1] did it give?
A: 6.00 to 10.00

Q: With `NCc1cccc(C2CCN(C(=O)/C=C/c3ccc(O)c(O)c3)CC2)c1` [T24, (E)-1-(4-(3-(aminomethyl)phenyl)piperidin-1-yl)-3-(3,4-dihydroxyphenyl)prop-2-en-1-one hydrochloride] as the compound, how does the pIC50 [1] read?
A: 5.00 to 6.00

Q: And the pIC50 [3]?
A: 5.00 to 6.00

Q: With `NCc1cccc(C2CCN(C(=O)CCc3ccc(O)c(O)c3)CC2)c1` [T24Dihydro, 1-(4-(3-(aminomethyl)phenyl)piperidin-1-yl)-3-(3,4-dihydroxyphenyl)propan-1-one (TFA salt)] as the compound, how does the pIC50 [3] read?
A: 5.00 to 6.00

Q: `COc1cc(/C=C/C(=O)N2CCC(c3cccc(CN)c3)CC2)ccc1O` [T24MON, (E)-1-(4-(3-(aminomethyl)phenyl)piperidin-1-yl)-3-(4-hydroxy-3-methoxyphenyl)prop-2-en-1-one] was tested. Which pIC50 [1] did it give?
A: 5.00 to 6.00

Q: With `NCc1cccc(C2CCN(C(=O)/C=C\c3ccc(O)c(O)c3)CC2)c1` [T24cis, (Z)-1-(4-(3-(aminomethyl)phenyl)piperidin-1-yl)-3-(3,4-dihydroxyphenyl)prop-2-en-1-one] as the compound, how does the pIC50 [1] read?
A: 5.00 to 6.00

Q: What about the pIC50 [3] of the same compound?
A: 5.00 to 6.00

Q: What does the source list for `NCc1cccc(C2CCN(C(=O)c3cccc(N4C[C@@H](O)[C@@H](O)C4)c3)CC2)c1` [T25B, (4-(3-(aminomethyl)phenyl)piperidin-1-yl)(3-((3S,4R)-3,4-dihydroxypyrrolidin-1-yl)phenyl)methanone]?
A: pIC50 [1]: 6.00 to 10.00; pIC50 [2]: 6.00 to 10.00

Q: How did the pIC50 [1] turn out when `NCc1cccc(C2CCN(C(=O)c3cccc(C(=O)N4C[C@@H](O)[C@H](O)C4)c3)CC2)c1` [T26diol cis, (4-(3-(aminomethyl)phenyl)piperidin-1-yl)(3-((3R,4R)-3,4-dihydroxypyrrolidine-1-carbonyl)phenyl)methanone] was run?
A: 5.00 to 6.00

Q: What about the pIC50 [3] of the same compound?
A: 5.00 to 6.00

Q: How did the pIC50 [1] turn out when `NCc1cccc(C2CCN(C(=O)c3cccc(C(=O)N4C[C@@H](O)[C@@H](O)C4)c3)CC2)c1` [T26diol trans, (4-(3-(aminomethyl)phenyl)piperidin-1-yl)(3-((3S,4R)-3,4-dihydroxypyrrolidine-1-carbonyl)phenyl)methanone] was run?
A: 5.00 to 6.00

Q: What about the pIC50 [3] of the same compound?
A: 5.00 to 6.00

Q: What does the source list for `NCc1ccc(F)c(C2CCN(C(=O)c3cccc4cc(O)c(O)cc34)CC2)c1` [T27F, (4-(5-(aminomethyl)-2-fluorophenyl)piperidin-1-yl)(6,7-dihydroxynaphthalen-1-yl)methanone]?
A: pIC50 [1]: 5.00 to 6.00; pIC50 [3]: 5.00 to 6.00

Q: `NCc1cccc(C2CCN(C(=O)c3cccc(O)c3O)CC2)c1` [T28, (4-(3-(aminomethyl)phenyl)piperidin-1-yl)(2,3-dihydroxyphenyl)methanone] was tested. Which pIC50 [1] did it give?
A: 5.00 to 6.00

Q: What about the pIC50 [3] of the same compound?
A: 5.00 to 6.00

Q: With `NCc1cccc(C2CCN(C(=O)c3cccc(OCC(=O)N4C[C@@H](O)[C@@H](O)C4)c3)CC2)c1` [T29, 2-(3-(4-(3-(aminomethyl)phenyl)piperidine-1-carbonyl)phenoxy)-1-((3S,4R)-3,4-dihydroxypyrrolidin-1-yl)ethanone] as the compound, how does the pIC50 [1] read?
A: 5.00 to 6.00

Q: How did the pIC50 [1] turn out when `NCc1cccc(C2CCN(C(=O)c3ccc(OCC(=O)N4C[C@@H](O)[C@@H](O)C4)cc3)CC2)c1` [T30, 2-(4-(4-(3-(aminomethyl)phenyl)piperidine-1-carbonyl)phenoxy)-1-((3S,4R)-3,4-dihydroxypyrrolidin-1-yl)ethanone] was run?
A: 5.00 to 6.00

Q: And the pIC50 [3]?
A: 5.00 to 6.00

Q: `NCc1cccc(C2CCN(C(=O)c3cc4cc(O)ccc4[nH]3)CC2)c1` [T31A, (4-(3-(aminomethyl)phenyl)piperidin-1-yl)(5-hydroxy-1H-indol-2-yl)methanone] was tested. Which pIC50 [1] did it give?
A: 6.00 to 10.00

Q: How did the pIC50 [1] turn out when `NCc1cccc(C2CCN(C(=O)c3cc4c(B(O)O)cccc4[nH]3)CC2)c1` [T32, 2-(4-(3-(aminomethyl)phenyl)piperidine-1-carbonyl)-1H-indol-4-ylboronic acid] was run?
A: 5.00 to 6.00

Q: And the pIC50 [3]?
A: 5.00 to 6.00

Q: With `NCc1cccc(C2CCN(C(=O)/C=C/c3ccc(B(O)O)cc3)CC2)c1` [T33, (E)-4-(3-(4-(3-(aminomethyl)phenyl)piperidin-1-yl)-3-oxoprop-1-enyl)phenylboronic acid] as the compound, how does the pIC50 [1] read?
A: 5.00 to 6.00

Q: And the pIC50 [3]?
A: 5.00 to 6.00

Q: With `N=C(N)c1ccc2c(c1)C1(CCN(C(=O)/C=C/c3ccc(B(O)O)cc3)CC1)CO2` [T33SPAM, (E)-4-(3-(5-carbamimidoyl-2H-spiro[benzofuran-3,4′-piperidine]-1′-yl)-3-oxoprop-1-enyl)phenylboronic acid] as the compound, how does the pIC50 [3] read?
A: 5.00 to 6.00

Q: Which results are given for `NCc1cccc(C2CCN(C(=O)/C=C/c3cccc(B(O)O)c3)CC2)c1` [T34, (E)-3-(3-(4-(3-(aminomethyl)phenyl)piperidin-1-yl)-3-oxoprop-1-enyl)phenylboronic acid]?
A: pIC50 [1]: 5.00 to 6.00; pIC50 [3]: 5.00 to 6.00

Q: How did the pIC50 [1] turn out when `NCc1cccc(C2CCN(C(=O)c3cccc(-c4cccc(B(O)O)c4)c3)CC2)c1` [T35, 3′-(4-(3-(aminomethyl)phenyl)piperidine-1-carbonyl)biphenyl-3-ylboronic acid] was run?
A: 6.00 to 10.00

Q: What about the pIC50 [3] of the same compound?
A: 6.00 to 10.00

Q: Which results are given for `NCc1ccc(F)c(C2CCN(C(=O)c3cccc(-c4cccc(B(O)O)c4)c3)CC2)c1` [T35F, 3′-(4-(5-(aminomethyl)-2-fluorophenyl)piperidine-1-carbonyl)biphenyl-3-ylboronic acid]?
A: pIC50 [1]: 6.00 to 10.00; pIC50 [3]: 6.00 to 10.00

Q: `N=C(N)c1ccc2c(c1)C1(CCN(C(=O)c3cccc(-c4cccc(B(O)O)c4)c3)CC1)CO2` [T35SPAM, 3′-(5-carbamimidoyl-2H-spiro[benzofuran-3,4′-piperidine]-1′-ylcarbonyl)biphenyl-3-ylboronic acid] was tested. Which pIC50 [3] did it give?
A: 6.00 to 10.00

Q: How did the pIC50 [1] turn out when `NCc1ccc2c(c1)C1(CCN(C(=O)c3cccc(-c4cccc(B(O)O)c4)c3)CC1)CO2` [T35SPIRO, 3′-(5-(aminomethyl)-2H-spiro[benzofuran-3,4′-piperidine]-1′-ylcarbonyl)biphenyl-3-ylboronic acid] was run?
A: 5.00 to 6.00

Q: And the pIC50 [3]?
A: 5.00 to 6.00
